target: GLP-1 Receptor (Homo sapiens, UniProt P43220); assay: GLP-1R agonist cAMP stimulation assay, Method 2 (HDB HEK293/GLP1R/CRE-LUC, Cisbio cAMP dynamic 2 kit); format: cell-based; conditions: HEK293/GLP1R/CRE-LUC cells (HD Biosciences); 30 min at 37° C.; 0.5 mM IBMX, 0.1% BSA; geometric mean where n>=2; read-out: GLP1R cAMP Stimulation DR: EC50 (nM) Method 2 (HDB)
Method: Method 2: Activation of GLP-1 receptor is known to stimulate cyclic AMP (cAMP) production in cells which indicates primary coupling to the Gas subunit of the G protein heterotrimeric complex.
To optimize functional activity directed toward Gas coupling, a HEK293/CRE-Luc cell line developed by HDB stably expressing the GLP-1 Receptor was used. 200× concentration of compound working solutions were prepared (Agilent Technologies Bravo) with ½log serial dilution in 384-well Echo LDV plate (Labcyte, Cat# LP-0200). […] Seal the plate and incubate at 37° C. with 5% CO2 for 30 min.
After incubation the cAMP assay signal was generated using cAMP dynamic 2 Kit (Cisbio). 5 µL cAMP-d2 working solution was added to each well, followed with 5 µL Anti-cAMP antibody-cryptate working solution added to each well using ThermoFisher Multidrop Combi. Incubate at room temperature for 1 hour protected from light.
%Activity = 100% x (mean RLU of test sample - mean RLU of vehicle control) / (mean RLU of MAX control - mean RLU of vehicle control))
This is done to account for the lognormal distribution of multiple estimates of EC50 values. In practice geometric mean is calculated by first generating log values of EC50, averaging replicates and then calculating the antilog of the average.

Sequence of GLP-1 Receptor (P43220 24-463): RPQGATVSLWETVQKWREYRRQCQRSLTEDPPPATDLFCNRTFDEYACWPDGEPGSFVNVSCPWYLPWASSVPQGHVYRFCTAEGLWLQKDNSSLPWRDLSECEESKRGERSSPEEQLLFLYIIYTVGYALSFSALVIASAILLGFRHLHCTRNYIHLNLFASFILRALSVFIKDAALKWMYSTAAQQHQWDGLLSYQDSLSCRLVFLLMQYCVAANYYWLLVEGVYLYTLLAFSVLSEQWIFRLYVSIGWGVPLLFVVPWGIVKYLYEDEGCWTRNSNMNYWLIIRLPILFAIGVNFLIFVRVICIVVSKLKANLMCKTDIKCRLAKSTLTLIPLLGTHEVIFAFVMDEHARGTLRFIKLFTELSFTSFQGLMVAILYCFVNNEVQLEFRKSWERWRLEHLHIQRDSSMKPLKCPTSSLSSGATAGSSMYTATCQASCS

EC50 [nM]	SMILES
0.0088	N#Cc1ccc(COc2cccc(C3=CCC(Cc4nc5ccc(C(=O)O)nc5n4C[C@@H]4CCO4)CC3)n2)c(F)c1 (single isomer, unassigned) [Compound 101b]
0.083	N#Cc1ccc(COc2cccc(C3=CCC(Cc4nc5ccc(C(=O)O)nc5n4C[C@@H]4CCO4)CC3)n2)c(F)c1 (single isomer, unassigned) [Compound 101c]
0.007	O=C(O)c1ccc2nc(CC3CC=C(c4cccc(OCc5ccc(Cl)cc5F)n4)CC3)n(C[C@@H]3CCO3)c2n1 (single isomer, unassigned) [Compound 102b]
0.044	O=C(O)c1ccc2nc(CC3CC=C(c4cccc(OCc5ccc(Cl)cc5F)n4)CC3)n(C[C@@H]3CCO3)c2n1 (single isomer, unassigned) [Compound 102c]
0.012	O=C(O)c1ccc2nc(CC3CC=C(c4ncc(F)c(OCc5ccc(Cl)cc5F)n4)CC3)n(C[C@@H]3CCO3)c2n1 (single isomer, unassigned) [Compound 114b]
0.13	O=C(O)c1ccc2nc(CC3CC=C(c4ncc(F)c(OCc5ccc(Cl)cc5F)n4)CC3)n(C[C@@H]3CCO3)c2n1 (single isomer, unassigned) [Compound 114c]
0.015	O=C(O)c1ccc2nc(CC3CC=C(c4ccc(F)c(OCc5ccc(Cl)cc5F)n4)CC3)n(C[C@@H]3CCO3)c2n1 (stereo partly drawn) [Compound 113a, 2-((4-(6-((4-chloro-2-fluorobenzyl)oxy)-5-fluoropyridin-2-yl)cyclohex-3-en-1-yl)methyl)-3-(((S)-oxetan-2-yl)methyl)-3H-imidazo[4,5-b]pyridine-5-carboxylic acid]
0.02	O=C(O)c1ccc2nc(CC3CC=C(c4ncc(F)c(OCc5ccc(Cl)cc5F)n4)CC3)n(C[C@@H]3CCO3)c2n1 (stereo partly drawn) [Compound 114a, 2-((4-(4-((4-chloro-2-fluorobenzyl)oxy)-5-fluoropyrimidin-2-yl)cyclohex-3-en-1-yl)methyl)-3-(((S)-oxetan-2-yl)methyl)-3H-imidazo[4,5-b]pyridine-5-carboxylic acid]
0.018	N#Cc1ccc(COc2nc(C3=CCC(Cc4nc5ccc(C(=O)O)nc5n4C[C@@H]4CCO4)CC3)ccc2F)c(F)c1 (stereo partly drawn) [Compound 115a, 2-((4-(6-((4-cyano-2-fluorobenzyl)oxy)-5-fluoropyridin-2-yl)cyclohex-3-en-1-yl)methyl)-3-(((S)-oxetan-2-yl)methyl)-3H-imidazo[4,5-b]pyridine-5-carboxylic acid]
0.73	O=C(O)c1cc2c(cn1)nc(CC1CC=C(c3cccc(OCc4ccc(Cl)cc4F)n3)CC1)n2C[C@@H]1CCO1 (stereo partly drawn) [Compound 116a, 2-((4-(6-((4-chloro-2-fluorobenzyl)oxy)pyridin-2-yl)cyclohex-3-en-1-yl)methyl)-1-(((S)-oxetan-2-yl)methyl)-1H-imidazo[4,5-c]pyridine-6-carboxylic acid]
0.37	N#Cc1ccc(COc2cccc(C3=CCC(Cc4nc5cnc(C(=O)O)cc5n4C[C@@H]4CCO4)CC3)n2)c(F)c1 (stereo partly drawn) [Compound 117a, 2-((4-(6-((4-cyano-2-fluorobenzyl)oxy)pyridin-2-yl)cyclohex-3-en-1-yl)methyl)-1-(((S)-oxetan-2-yl)methyl)-1H-imidazo[4,5-c]pyridine-6-carboxylic acid]
0.02	O=C(O)c1cnc2nc(CC3CC=C(c4cccc(OCc5ccc(Cl)cc5F)n4)CC3)n(C[C@@H]3CCO3)c2c1 (stereo partly drawn) [Compound 118a, 2-((4-(6-((4-chloro-2-fluorobenzyl)oxy)pyridin-2-yl)cyclohex-3-en-1-yl)methyl)-1-(((S)-oxetan-2-yl)methyl)-1H-imidazo[4,5-b]pyridine-6-carboxylic acid]
0.17	O=C(O)c1cnc2nc(CC3CC=C(c4nccc(OCc5ccc(Cl)cc5F)n4)CC3)n(C[C@@H]3CCO3)c2c1 (stereo partly drawn) [Compound 119a, 2-((4-(4-((4-chloro-2-fluorobenzyl)oxy)pyrimidin-2-yl)cyclohex-3-en-1-yl)methyl)-1-(((S)-oxetan-2-yl)methyl)-1H-imidazo[4,5-b]pyridine-6-carboxylic acid]
